Experimental data from patent US20110060000A1, “ACRIDINE ANALOGS IN THE TREATMENT OF GLIOMAS” (priority 2009, published 2011).

How the values were obtained:
GRP78 promoter = assay: GRP78-luc reporter assay in stably transfected U87-MG clone A5; type: cell-based, human; details: for GRP78 promoter driven luciferase (GRP78-luc) expression: result in words
Method: The promoter region contains the sequence of the GRP78 promoter from −139 to +7. In this part of the promoter there are three ER stress responsive elements and the TATA box to which is linked in frame the firefly luciferase sequence.
Compounds were plated in half area 96 well plates at the final concentration of 2 μM in 5 μl of media. Cells were added in 45 μl afterwards at the density of 5000/well. Plates were read after 16 h in an Envision high efficiency plate reader. Results are represented as a plate layout in which different shadings indicate the different rows and the number indicate the different lines. As a standard negative and positive controls were located in the outer columns.
A construct coding a large part of the human GRP78 promoter, attached to the reporter gene firefly luciferase was used (see FIG. 16 for a schematic) (Yoshida et al., 1998).
The promoter region contains the sequence of the GRP78 promoter from −139 to +7. In this part of the promoter there are three ER stress responsive elements and the TATA box to which is linked in frame the firefly luciferase sequence (FIG. 16)(Yoshida et al., 1998). The construct, which was cloned in an expression vector, was transfected into E. Coli, amplified, purified and checked it by enzymatic digestion. Thereafter, C6 and U87-MG were transiently transfected with the plasmid. After 24 hours the cells were challenged with THAP and TUN for 24 hours. Although, in transient transfection only a small part of the cell population expresses the transduced gene, a significant induction by THAP and TUN was detected over 24 hours. Armed with these encouraging data human glioma cells U87-MG were transfected with both the above described construct and a construct carrying resistance to blasticidin. The sensitivity of these cells to the antibiotic has previously been assessed. 24 hours after the transfection the antibiotic at its 75% inhibitory concentration was added. The cells were given time to proliferate. Two pools called P2 and P5 were selected and luciferase expression was assessed. […] Clones from these two pools were isolated. Luciferase expression in the clones was characterized and a clone called A5, in which baseline expression of the construct was reasonably low and induction with two positive controls was large and consistent, was selected. This clone, several back up clones, and the pools were amplified and frozen in sufficient amounts to guarantee continuity in case needed. Next, the effect of the incubation time on luciferase induction was assessed. Since this assay can be affected by false negative due to toxicity of hit compounds, the incubation times were kept as short as possible. Therefore, several incubation times were tested, including 8, 16 and 24 h. The goal was not to incubate longer than 24 hours because toxicity starts to develop at that time point. […] At this time point the induction is about 6-7 fold. Previously, using a different assay, a half a million compound library was screened very easily using 2.5 thousands cells per well in 1536 plates. […] With this cell number the dynamic range is large and the fold of induction of 6-7 is maintained.
It is common practice in the field of high throughput screening to assess the so called z number of the assay. This statistical parameter indicates the suitability of a given assay for high throughput screening. The z-value in a word describes the likelihood of a single point hit not to be false positive. The z value is a number lower than or equal to one. Values above 0.5 indicate a robust assay. Values below 0.5 but above 0 indicate an assay that probably needs to be run in duplicate. Negative values indicate assays whose predictability is very low. Z values are usually determined in a high density format plate usually a 96 well plate in manual conditions or a 384-1536 plate format in automated liquid handling environment. Z value determination has been performed using half area 96 well plates in manual mode. […]

glioma cells = assay: Gliotoxicity, cell line not stated; type: cell-based; details: cell line not stated
From the text: Spiperone is a selective D2 dopamine receptor antagonist. This drug is used in the treatment of schizophrenia and other hallucinatory states. […] In an effort to develop Structure-Activity Relationships around the chosen compounds, a search of commercially available compounds that are either close structural analogs of these lead compounds (for example, acridine and quinoline analogs of quinacrine) or are related to these in terms of their pharmacological activity (dopamine receptor antagonists related to spiperone) was performed.

[1] = tested on: U87-MG skin xenograft tumor explants; assay: U87-MG skin xenograft tumor explants, ERSR markers; type: in vivo, mice; details: samples after 7 and 21 days
From the text: U7 represents vehicle treated sample after 7 days. U21 represents vehicle treated sample after 21 days. Q7 represents quinacridine-treated sample after 7 days. Q21 represents quinacridine-treated sample after 21 days. 9AA-7 represents 9-aminoacridine-treated sample after 7 days. 9AA-21 represents 9-aminoacridine-treated sample after 21 days.

p53 = details: cited from earlier work
tumor cells = details: in vitro and in vivo; cited from earlier work
NF-κB = details: tumor cells; cited from earlier work
DNA = details: cited from earlier work
[2] = tested on: subcutaneous U87-MG gliomas; assay: Mice bearing subcutaneous U87-MG gliomas; type: in vivo
From the text: The estimated survival prolongment is 14 days in mice life which compares at 851 days in human life based on a life expectancy of 18 months in mice and 90 years in human. Also, since one animal was tumor-free at the end of the treatment that translates in an expected 16% cure rate.
FIG. 29a graphs % tumor weight/control as a function of days after implantation. […] Such a profile indicates effectiveness in vivo for both treatment and for prevention of relapse. FIG. 29b graphs % animal survival as a function of days after implantation. […] Such a profile indicates effectiveness in vivo for both treatment and for prevention of relapse.
Mice bearing subcutaneous gliomas were received daily oral administration of 200 mg/kg of quinacrine. […] In FIG. 29 is shown the effect of 100 mg/kg of quinacrine and 10 mg/kg 9-aminoacridine in Mice bearing subcutaneous U87-MG gliomas.

C6 [3] = assay: [Ca2+]i measurement in C6; type: cell-based, rat
From the text: (Statistical analysis it is shown in the inset. Values at the peak of the response have been analyzed using ANOVA followed by T-test, ** indicate P<0.01.).
Ca^2+ mobilization from ER was caused using an agonist acting via inositol trisphosphate elevation, mimicking physiological responses. In these conditions the dynamics of Ca^2+ transients were observe in these two cell lines. It appears evident that the plateau phase in C6 is consistently larger than in astrocytes.
Panel A: Challenge of astrocytes with ATP show the unchanged typical spike and plateau response. Panel B: In C6 an oscillatory pattern is readily detectable in response to treatment with TUN.
Tools and protocols have been developed to cleanly observe capacitative Ca^2+ entry (CCE), the phenomenon that allows the replenishment of intracellular Ca^2+ (ICS) stores and make quantitative and qualitative assessments. In particular, in astrocytes, capacitative Ca^2+ entry happens in absence of cytoplasmic Ca^2+ concentration ([Ca^2+]i) elevation (Grimaldi; 2006)(FIG. 1). […] The study was designed to investigate if there was a difference between astrocytes and glial cancer cells in this distinctive homeostatic pattern. The findings presented in this study, indicate that there are striking differences between glial cells and their cancer counterpart. The model utilizes rat cells but the observations extend and apply to human glioma cells as well. When the responses of normal astrocytes and C6 cells to thapsigargin (THAP), an agent able to block SERCA, therefore causing the release of Ca^2+ from the ER, were compared it was evident that C6 was more sensitive to the THAP (FIG. 2). However, the difference can be ascribed to one of many possibilities. […]
This phase is dependent on the balance of Ca^2+ influx triggered by store depletion and the reuptake in the ER due to SERCA activity. […] To investigate the role of influx triggered by ICS depletion, CCE was analyzed following THAP-induced depletion of ICS. […]

PLA2 = details: coinjection with PLA2; cited from earlier work
phospholipase A2 (PLA2) = details: cited from earlier work
C6 [4] = assay: TUNEL labeling in C6; type: cell-based, rat; details: C6, 24 hours
Method: C6 were plated on glass coverslips. Cells were fixed and stained accordingly to manufacturer instructions. Propidium staining of the nuclei was replaced by Hoechst included in the mounting media. Several images were acquired with a high resolution camera on a microscope equipped with a 10× long working distance dry lens and analyzed with powerful commercial software. Results were expressed in the graph as green labeled pixel counts. The images from the top to the bottom are respectively from N.T., DMSO, Thap 20 nM, Thap 200 nM, STS100 nM. The blue images reflect nuclear staining while the images on the right represent BRDU staining.
Thereafter, cells were harvested and protein extracted. Procaspase 12 band at 65 kDa was identified. In some of the treatments, the active product at 45 kDa was also detected. […] Conversely, in C6, higher GRP78 levels and the cell environment reflect significant caspase activation. […] Caspase activation in ERSR conditions was also confirmed with a TUNEL based apoptosis detection system in C6. […] High resolution images of the experiments were acquired and image morphometric analysis was performed to determine quantitative parameters of the staining as previously described (Pascale et al., 2004, “Translocation of protein kinase C-betaII in astrocytes requires organized actin cytoskeleton and is not accompanied by synchronous RACK1 relocation.” Glia 46(2): 169-82). […]

[5] = full dose over about 45 days, Q oral, 9-AA I.P.
[6] = half dose (maintenance dose) up to about 60 days

SMILES: Cl.Nc1c2ccccc2nc2ccccc12.O [9-aminoacridine, hydrate, hydrochloride]
- GRP78 promoter driven luciferase (GRP78-luc) expression (GRP78 promoter; hydrate, hydrochloride): causes increased expression of the GRP78-luc reporter gene
- gliotoxicity (glioma cells): causes gliotoxicity

SMILES: Nc1c2ccccc2nc2ccccc12 [9-aminoacridine]
- ERSR activation and GRP78 target protein in tumor explants [1]: activaiton of ERSR and changes in GRP78 target protein
- caspase 12 activation in tumor explants [1]: activation of caspase 12 is evident
- p53 activation and p53-dependent killing of tumor cell types (p53): capable of p53 activation and p53-dependent killing
- toxicity to tumor versus normal cells (tumor cells): more toxic to tumor than to normal cells
- stimulated and basal constitutive NF-κB activity (NF-κB): block stimulated NF-κB activity and also effectively reduce basal levels of constitutive NF-κB activity
- DNA damaging activity (DNA): not found to show DNA damaging activity
- cure rate ([2]; 10 mg/kg 9-aminoacridine): 77%
- antiglioma action ([2]; 100 mg/kg of quinacrine and 10 mg/kg 9-aminoacridine): powerful antiglioma action
- tumor once survival rate stabilized ([2]; 9-AA I.P.): no sign of tumor
- animal survival rate compared to control [2, 5]: increased survival rate
- tumor size compared to control [2, 5]: decrease in tumor size
- animal survival rate compared to control [2, 6]: survival rate was high
- tumor size compared to control [2, 6]: tumor size remained relatively constant

SMILES: Nc1ncnc2c1ncn2[C@@H]1O[C@H](COP(=O)(O)OP(=O)(O)OP(=O)(O)O)[C@@H](O)[C@H]1O [ATP]
- [Ca2+]i response of C6 to ATP compared with astrocytes (C6 [3]): increased elevation of [Ca^2+]i

SMILES: CCN(CC)CCCC(C)Nc1c2cc(OC)ccc2nc2cc(Cl)c(N)cc12 (stereo not drawn) [OSSL-053454, 3-chloro-N^9-(5-(diethlyamino)pentan-2-yl)-7-methoxy acridine-2,9-diamine]
- GRP78 promoter driven luciferase (GRP78-luc) expression (GRP78 promoter): causes an increase of the GRP78-luc reporter gene similar to the increase caused by quinacrine
- GRP78 promoter driven luciferase (GRP78-luc) expression (GRP78 promoter; listed as OSSL 53454): causes an increase of the GRP78-luc reporter gene as quinacrine
- gliotoxicity (glioma cells): causes gliotoxicity similar to that caused by quinacrine
- gliotoxicity (glioma cells; listed as OSSL 53454): causes gliotoxicity

SMILES: CCN(CC)CCCC(C)Nc1c2ccc(Cl)cc2nc2ccc(OC)cc12.Cl.Cl (stereo not drawn) [quinacrine hydrochloride, 6-chloro-9-((4-(diethylamino)-1-methylbutyl)amino)-2-methoxyacridine dihydrochloride]
- reduction of the inflammogenic potency of PLA2 (PLA2): 64%
- PLA2 inhibition in platelets (phospholipase A2 (PLA2)): phospholipase A2 (PLA2) inhibitor

SMILES: O=C(CCCN1CCC2(CC1)C(=O)NCN2c1ccccc1)c1ccc(F)cc1 [spiperone]
- hit in Prestwick library screening (value above average of negative controls + 3 SD) (GRP78 promoter; 2 μM, 5000 cells/well, read after 16 h): potentially attractive lead compounds

SMILES: CN[C@@H]1C[C@H]2O[C@@](C)([C@@H]1OC)n1c3ccccc3c3c4c(c5c6ccccc6n2c5c31)C(=O)NC4 [staurosporin]
- TUNEL labeling (C6 [4]): clear increase of TUNEL labeling
